PubChem BioAssay (NCI)
Several values for one entry are separate records, joined by “and”; a condition that tells them apart may be missing. Equal entries are not always repeated.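 Protocol summary: plate cells (96-well), add compound at 5 concentrations, incubate 48 h, interpolate endpoints linearly. Here, GI50 denotes the concentration required for 50% inhibition of growth. TGI marks complete inhibition of growth.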

Tests used:
Experiment in all cases: NCI tumour cell line growth inhibition, 48 h
DU-145 prostate = test system: DU-145 prostate
MCF7 breast = test system: MCF7 breast
NCI/ADR-RES ovarian = test system: NCI/ADR-RES ovarian
PC-3 prostate = test system: PC-3 prostate
DMS 114 small cell lung = test system: DMS 114 small cell lung
LXFL 529 NSCLC = test system: LXFL 529 NSCLC
M19-MEL melanoma = test system: M19-MEL melanoma
SNB-78 CNS = test system: SNB-78 CNS
XF 498 CNS = test system: XF 498 CNS
HOP-18 NSCLC = test system: HOP-18 NSCLC

Structure (SMILES) | GI50 (DU-145 prostate) | TGI (DU-145 prostate) | GI50 (MCF7 breast) | TGI (MCF7 breast) | GI50 (NCI/ADR-RES ovarian) | TGI (NCI/ADR-RES ovarian) | GI50 (PC-3 prostate) | TGI (PC-3 prostate) | TGI (DMS 114 small cell lung) [µM] | TGI (LXFL 529 NSCLC) [µM] | TGI (M19-MEL melanoma) [µM] | TGI (SNB-78 CNS) [µM] | TGI (XF 498 CNS) [µM] | TGI (HOP-18 NSCLC) [µM]
CN1CCN(c2ccc(Nc3nc(N)c(C(=O)c4ccc5c(c4)OCCO5)s3)cc2)CC1 | 4.34 µM | 16.5 µM | 2.85 µM | 7.73 µM | 7.54 µM | > 25 µM | 1.77 µM | 8.47 µM | – | – | – | – | – | –
Cc1nc(CN2CCCCC2)c(O)c(=O)[nH]1 | – | > 100 µM | – | > 100 µM | – | > 100 µM | – | > 100 µM | – | – | – | – | – | –
Nc1ncnc2c1c(-c1cccc(OCc3ccccc3)c1)cn2C1CC(CN2CCC2)C1 (stereo not drawn) | 4.61 µM and 7.63 µM | 17.7 µM and > 10 µM | 0.092 µM and 0.369 µM | 3.74 µM and 5.55 µM | 6.47 µM and 8.96 µM | 22.6 µM and > 10 µM | 2.94 µM and 5.42 µM | 13.9 µM and > 10 µM | – | – | – | – | – | –
O=C(c1ccccc1)c1oc2ccc(Br)cc2c1-c1cnn(-c2ccccc2)c1 | – | – | – | – | – | – | – | – | > 100 | > 100 | > 100 | > 100 | > 100 | –
CCN(CC)CCCC(C)Nc1nc(C)cc(Nc2ccc3nc(C)cc(N)c3c2)n1 (stereo not drawn) | 42.4 µM | > 100 µM | 31.2 µM | 78.3 µM | > 100 µM | > 100 µM | 12.4 µM | 37.8 µM | – | – | – | – | – | –
Cc1cc2cn3c4ccc(O)cc4[nH]c(=O)c3c2cc1C | 0.0285 µM | 0.315 µM | – | – | – | – | 0.0542 µM | 1.7 µM | – | – | – | – | – | –
O=[N+]([O-])/C=C/c1cc2ccccc2[nH]1 | – | 28.8 µM | – | 13.1 µM | – | 98.2 µM | – | 31.7 µM | – | – | – | – | – | –
O=C(O)CCC/C=C\C[C@H]1C=CC(=O)/C1=C/C[C@@H](O)CCc1cccc(C(F)(F)F)c1 | 2.43 µM | 10.3 µM | 0.444 µM | 12.4 µM | 3.15 µM | 29.3 µM | 3.12 µM | 10.3 µM | – | – | – | – | – | –
Cc1ccccc1C(=O)Oc1ccc(O)cc1 | – | – | – | – | – | – | – | – | – | – | > 100 | > 100 | – | > 100
COC(=O)Nc1nc2ccc(C(=O)c3ccc(N(C)C4COC4)cc3)cc2[nH]1 | 0.392 µM | > 100 µM | 0.346 µM | > 100 µM | 0.362 µM | > 100 µM | 0.379 µM | > 100 µM | – | – | – | – | – | –
CC(=O)O[C@H]1CCC2[C@@H]3CCC4=C(O)C(=O)C(C#N)C[C@]4(C)C3CC[C@@]21C (stereo partly drawn) | – | – | – | – | – | – | – | – | 81.1 | > 100 | > 100 | > 100 | > 100 | –
COC(=O)NC1(NC(=O)OC)NC(=O)c2cc(OC)c(OC)c(OC)c2N1 | – | > 100 µM | – | > 100 µM | – | 56.6 µM | – | 72.3 µM | – | – | – | – | – | –
COc1cc(Nc2ncc(F)c(Nc3ccc4c(n3)NC(=O)C(C)(C)O4)n2)cc(OC)c1OC | > 10 µM | > 10 µM | 3.93 µM | > 10 µM | > 10 µM | > 10 µM | > 10 µM | > 10 µM | – | – | – | – | – | –
Fc1ccc(-c2ncn(C3CCNCC3)c2-c2ccnc(Oc3ccc(F)c(F)c3)n2)cc1 | 8.78 µM | > 16.7 µM | 4.28 µM | 8.27 µM | 8.83 µM | > 25 µM | 9.05 µM | > 19.9 µM | – | – | – | – | – | –
S=C(Nc1ccc(Cl)cc1)Nc1ccc(-c2nc3ccccc3o2)cc1 | 17 µM | 38.6 µM | 17.6 µM | 51.4 µM | 21.8 µM | 58.7 µM | 15.4 µM | 51.4 µM | – | – | – | – | – | –
O=C(O)c1ccc(S(=O)(=O)Nc2ccc3oc4c(c3c2)C(=O)CCC4)cc1 | > 100 µM | > 100 µM | > 100 µM | > 100 µM | > 100 µM | > 100 µM | > 100 µM | > 100 µM | – | – | – | – | – | –
O=S(=O)(SCc1ccccc1)C(c1ccccc1)c1ccccc1 | – | – | – | – | – | – | – | – | 48.1 | > 100 | > 100 | 75.7 | > 100 | –
Cc1ccc(C2NC(=O)c3ccccc3N2)s1 (stereo not drawn) | – | – | – | – | – | – | – | – | > 100 | > 100 | > 100 | > 100 | 19 | –
COc1cc2c3c(n(CCCNCCCNCCCNCCCN)c(=O)c2cc1OC)-c1cc2c(cc1C3=O)OCO2 | 1.42 µM | 4.19 µM | 0.712 µM | 2.47 µM | 1.83 µM | 3.22 µM | 3.31 µM | 14.8 µM | – | – | – | – | – | –
CC(C)C1CC2C(=O)N(c3ccccc3)C(=O)C2c2[nH]c3ccccc3c21 (stereo not drawn) | – | – | – | – | – | – | – | – | > 100 | – | > 100 | 77.3 | 54.9 | –
CCN1C2=NCCN2S(=O)(=O)c2ccccc21 | – | > 100 µM | – | > 100 µM | – | > 100 µM | – | > 100 µM | – | – | – | – | – | –
Cc1[nH]c2ccccc2c1-c1cc(-c2cc(-c3c(C)[nH]c4ccccc34)nc(N)n2)nc(N)n1 | – | – | – | > 100 µM | – | > 100 µM | – | > 100 µM | – | – | – | – | – | –
Cc1cc(Nc2c3ccccc3nc3ccccc23)ccc1NS(C)(=O)=O | 4.87 µM | 19.9 µM | 3.99 µM | 18.4 µM | 5.63 µM | 52.5 µM | – | – | – | – | – | – | – | –
OC(COc1ccc(F)cc1)Cn1cnc2c(Cl)ncnc21 (stereo not drawn) | > 100 µM | > 100 µM | > 100 µM | > 100 µM | > 100 µM | > 100 µM | > 100 µM | > 100 µM | – | – | – | – | – | –
CN1C(=O)[C@@H](NC(=O)[C@H](CCC(F)(F)F)[C@H](CCC(F)(F)F)C(N)=O)N=C(c2ccccc2)c2ccccc21 | > 100 µM | > 100 µM | 33.4 µM | > 100 µM | > 100 µM | > 100 µM | 55.7 µM | > 100 µM | – | – | – | – | – | –
O=C(Cc1nc2ccccc2s1)C(=O)Nc1cccc(Cl)c1 | – | – | – | – | – | – | – | – | > 100 | > 100 | > 100 | > 100 | > 100 | –
O=C(/C=C/C=C/c1c(C2CC2)nc2ccccc2c1-c1ccc(F)cc1)c1cccs1 | 2.46 µM | > 100 µM | 0.467 µM | > 100 µM | 2.62 µM | > 100 µM | 3.99 µM | > 100 µM | – | – | – | – | – | –
O=C(Nc1ccccc1O)c1ccc(CNc2ccnc(C(F)(F)F)c2)cc1 | 3.38 µM | 19.4 µM | 4.43 µM | > 100 µM | 2.41 µM | 54.4 µM | 2.72 µM | 48.4 µM | – | – | – | – | – | –
